Reference: EPA's ToxRefDB 2

Legend:
rabbit [1] = conditions: Prenatal developmental toxicity study, new zealand white, Oral, Gavage/Intubation, dose end: 19 GD, group: maternal
rabbit [2] = conditions: Sub-acute repeat dose toxicity, new zealand white, Oral, Gavage/Intubation, dose end: 13 day
rat [3] = conditions: Fertility (Segment I), Oral, Gavage/Intubation, dose end: 1 generation
rat [4] = conditions: Prenatal developmental toxicity study, sprague dawley, Oral, Gavage/Intubation, dose end: 18 GD
rat [5] = conditions: Fertility (Segment I), Oral, Gavage/Intubation, dose end: 1 generation, group: parental
rabbit [6] = conditions: Sub-acute repeat dose toxicity, new zealand white, Oral, Gavage/Intubation, dose end: 13 day, group: systemic
rat [7] = conditions: Subchronic dermal toxicity, Topical, dose end: 68 day, group: systemic
rat [8] = conditions: Sub-acute dermal toxicity, sprague dawley, Topical, dose end: 2 week, group: systemic
rat [9] = conditions: Subchronic dermal toxicity, sprague dawley, Topical, dose end: 90 day, group: systemic, systemic / pathology microscopic / skin / acanthosis + systemic / pathology microscopic / skin / edema + systemic / pathology microscopic / …
rat [10] = conditions: Subchronic oral toxicity in rodents, fischer, Feed, dose end: 14 week, group: systemic
rat [11] = conditions: Carcinogenicity, fischer, Oral, Feed, dose end: 2 year, group: systemic
mouse [12] = conditions: Subchronic oral toxicity in rodents, b6c3f1, Feed, dose end: 14 week, group: systemic, systemic / hematology / mean corpuscular (cell) volume (mcv) / mean corpuscular (cell) volume (mcv) + systemic / hematology / mean …
mouse [13] = conditions: Carcinogenicity, b6c3f1, Oral, Feed, dose end: 2 year, group: systemic
[14] = reproductive / reproductive performance / aborted / aborted + systemic / in life observation / body weight / body weight gain + systemic / …
[15] = systemic / in life observation / clinical signs / abnormal feces
[16] = group: maternal, reproductive / reproductive performance / aborted / aborted
[17] = group: systemic, systemic / in life observation / body weight / body weight + systemic / in life observation / clinical signs / abnormal feces + systemic / …
[18] = group: systemic, systemic / in life observation / clinical signs / abnormal feces
[19] = group: maternal, reproductive / reproductive performance / estrous cycle / length
[20] = group: parental, systemic / in life observation / body weight / body weight gain + systemic / in life observation / clinical signs / salivation + systemic / …
[21] = group: developmental, developmental / developmental malformation / bone / delayed ossification + developmental / developmental malformation / kidney / dilated …
[22] = group: maternal, systemic / in life observation / body weight / body weight + systemic / in life observation / clinical signs / salivation + systemic / in …
[23] = systemic / in life observation / body weight / body weight gain + systemic / in life observation / clinical signs / salivation
[24] = systemic / in life observation / clinical signs / tarry stools
[25] = systemic / in life observation / clinical signs / tarry stools + systemic / in life observation / body weight / body weight + systemic / in …
[26] = systemic / in life observation / clinical signs / [other] + systemic / pathology gross / skin / thickened + systemic / pathology gross / …
[27] = systemic / in life observation / clinical signs / erythema
[28] = systemic / in life observation / clinical signs / erythema + systemic / in life observation / clinical signs / general pallor + systemic / …
[29] = systemic / clinical chemistry / alanine aminotransferase (alt/sgpt) / alanine aminotransferase (alt/sgpt) + systemic / clinical chemistry / …
[30] = systemic / clinical chemistry / bile acids / bile acids + systemic / in life observation / body weight / body weight + systemic / in life …
[31] = systemic / in life observation / body weight / body weight
[32] = systemic / in life observation / body weight / body weight + systemic / in life observation / food consumption / food consumption
[33] = systemic / in life observation / body weight / body weight + systemic / pathology microscopic / nose / pigmentation

CCOc1cccc(C2(N3CCN(c4ccccc4)CC3)CCC(C)CC2)c1.CS(=O)(=O)O (stereo not drawn)
LOAEL (rabbit [1]; [14]): > 300 mg/kg/day | NOAEL (rabbit [1]; [14]): ≥ 300 mg/kg/day | LEL (rabbit [1]; [15]): 15 mg/kg/day | NEL (rabbit [1]; [15]): < 15 mg/kg/day | LEL (rabbit [2]; [16]): 300 mg/kg/day | LOAEL (rabbit [2]; [16]): > 500 mg/kg/day | NEL (rabbit [2]; [16]): 100 mg/kg/day | NOAEL (rabbit [2]; [16]): ≥ 500 mg/kg/day | LOAEL (rabbit [2]; [17]): > 500 mg/kg/day | NOAEL (rabbit [2]; [17]): ≥ 500 mg/kg/day | LEL (rabbit [2]; [18]): 100 mg/kg/day | NEL (rabbit [2]; [18]): < 100 mg/kg/day | LEL (rat [3]; [19]): 10 mg/kg/day | LOAEL (rat [3]; [19]): > 100 mg/kg/day | NEL (rat [3]; [19]): < 10 mg/kg/day | NOAEL (rat [3]; [19]): ≥ 100 mg/kg/day | LEL (rat [3]; [20]): 30 mg/kg/day | LOAEL (rat [3]; [20]): > 100 mg/kg/day | NEL (rat [3]; [20]): 10 mg/kg/day | NOAEL (rat [3]; [20]): ≥ 100 mg/kg/day | LEL (rat [4]; [21]): 60 mg/kg/day | LOAEL (rat [4]; [21]): > 125 mg/kg/day | NOAEL (rat [4]; [21]): ≥ 125 mg/kg/day | LEL (rat [4]; [22]): 60 mg/kg/day | LOAEL (rat [4]; [22]): > 125 mg/kg/day | NEL (rat [4]; [22]): 12 mg/kg/day | NOAEL (rat [4]; [22]): ≥ 125 mg/kg/day | LOAEL (rat [5]; [23]): > 100 mg/kg/day | NEL (rat [5]; [23]): 10 mg/kg/day | NOAEL (rat [5]; [23]): ≥ 100 mg/kg/day | LEL (rat [5]; systemic / in life observation / clinical signs / salivation): 30 mg/kg/day | LEL (rabbit [6]; [24]): 100 mg/kg/day | NEL (rabbit [6]; [24]): < 100 mg/kg/day | LOAEL (rabbit [6]; [25]): > 1000 mg/kg/day | NOAEL (rabbit [6]; [25]): ≥ 1000 mg/kg/day

CC1(C)COCN1 [4,4-Dimethyloxazolidine]
LEL (rat [7]; systemic / in life observation / clinical signs / [other]): 19.5 mg/kg/day | LOAEL (rat [7]; [26]): 195 mg/kg/day | NEL (rat [7]; [26]): 1.95 mg/kg/day | NOAEL (rat [7]; [26]): 19.5 mg/kg/day | LEL (rat [8]; [27]): 10 mg/kg/day | LOAEL (rat [8]; [27]): 10 mg/kg/day | NEL (rat [8]; [28]): 1 mg/kg/day | NOAEL (rat [8]; [28]): 1 mg/kg/day | LEL (rat [9]): 30 mg/kg/day | LOAEL (rat [9]): 30 mg/kg/day | NEL (rat [9]): 1 mg/kg/day | NOAEL (rat [9]): 1 mg/kg/day

O=C/C=C/c1ccccc1 [(2E)-3-Phenylprop-2-enal]
LOAEL (rat [10]; [29]): > 3100 mg/kg/day | NOAEL (rat [10]; [29]): ≥ 3100 mg/kg/day | LEL (rat [10]; [30]): 275 mg/kg/day | NEL (rat [10]; [30]): < 275 mg/kg/day | LOAEL (rat [11]; [31]): 200 mg/kg/day | LEL (rat [11]; [32]): 100 mg/kg/day | NEL (rat [11]; [32]): 50 mg/kg/day | NOAEL (rat [11]; [32]): 100 mg/kg/day | LEL (mouse [12]): 1320 mg/kg/day | LOAEL (mouse [12]): > 5200 mg/kg/day | NEL (mouse [12]): 650 mg/kg/day | NOAEL (mouse [12]): ≥ 5200 mg/kg/day | LOAEL (mouse [13]; [31]): 270 mg/kg/day | LEL (mouse [13]; [33]): 270 mg/kg/day | NEL (mouse [13]; [33]): 125 mg/kg/day | NOAEL (mouse [13]; [33]): 125 mg/kg/day
